Among the data in patent US10005768B2, “Carboxamide derivatives and use thereof” (Purdue Pharma L.P., priority 2013, dated 2018) are IC50 values, retold here.

Sequence of human Nav1.7 (Q15858 other isoform, or with tags, fused parts or gaps): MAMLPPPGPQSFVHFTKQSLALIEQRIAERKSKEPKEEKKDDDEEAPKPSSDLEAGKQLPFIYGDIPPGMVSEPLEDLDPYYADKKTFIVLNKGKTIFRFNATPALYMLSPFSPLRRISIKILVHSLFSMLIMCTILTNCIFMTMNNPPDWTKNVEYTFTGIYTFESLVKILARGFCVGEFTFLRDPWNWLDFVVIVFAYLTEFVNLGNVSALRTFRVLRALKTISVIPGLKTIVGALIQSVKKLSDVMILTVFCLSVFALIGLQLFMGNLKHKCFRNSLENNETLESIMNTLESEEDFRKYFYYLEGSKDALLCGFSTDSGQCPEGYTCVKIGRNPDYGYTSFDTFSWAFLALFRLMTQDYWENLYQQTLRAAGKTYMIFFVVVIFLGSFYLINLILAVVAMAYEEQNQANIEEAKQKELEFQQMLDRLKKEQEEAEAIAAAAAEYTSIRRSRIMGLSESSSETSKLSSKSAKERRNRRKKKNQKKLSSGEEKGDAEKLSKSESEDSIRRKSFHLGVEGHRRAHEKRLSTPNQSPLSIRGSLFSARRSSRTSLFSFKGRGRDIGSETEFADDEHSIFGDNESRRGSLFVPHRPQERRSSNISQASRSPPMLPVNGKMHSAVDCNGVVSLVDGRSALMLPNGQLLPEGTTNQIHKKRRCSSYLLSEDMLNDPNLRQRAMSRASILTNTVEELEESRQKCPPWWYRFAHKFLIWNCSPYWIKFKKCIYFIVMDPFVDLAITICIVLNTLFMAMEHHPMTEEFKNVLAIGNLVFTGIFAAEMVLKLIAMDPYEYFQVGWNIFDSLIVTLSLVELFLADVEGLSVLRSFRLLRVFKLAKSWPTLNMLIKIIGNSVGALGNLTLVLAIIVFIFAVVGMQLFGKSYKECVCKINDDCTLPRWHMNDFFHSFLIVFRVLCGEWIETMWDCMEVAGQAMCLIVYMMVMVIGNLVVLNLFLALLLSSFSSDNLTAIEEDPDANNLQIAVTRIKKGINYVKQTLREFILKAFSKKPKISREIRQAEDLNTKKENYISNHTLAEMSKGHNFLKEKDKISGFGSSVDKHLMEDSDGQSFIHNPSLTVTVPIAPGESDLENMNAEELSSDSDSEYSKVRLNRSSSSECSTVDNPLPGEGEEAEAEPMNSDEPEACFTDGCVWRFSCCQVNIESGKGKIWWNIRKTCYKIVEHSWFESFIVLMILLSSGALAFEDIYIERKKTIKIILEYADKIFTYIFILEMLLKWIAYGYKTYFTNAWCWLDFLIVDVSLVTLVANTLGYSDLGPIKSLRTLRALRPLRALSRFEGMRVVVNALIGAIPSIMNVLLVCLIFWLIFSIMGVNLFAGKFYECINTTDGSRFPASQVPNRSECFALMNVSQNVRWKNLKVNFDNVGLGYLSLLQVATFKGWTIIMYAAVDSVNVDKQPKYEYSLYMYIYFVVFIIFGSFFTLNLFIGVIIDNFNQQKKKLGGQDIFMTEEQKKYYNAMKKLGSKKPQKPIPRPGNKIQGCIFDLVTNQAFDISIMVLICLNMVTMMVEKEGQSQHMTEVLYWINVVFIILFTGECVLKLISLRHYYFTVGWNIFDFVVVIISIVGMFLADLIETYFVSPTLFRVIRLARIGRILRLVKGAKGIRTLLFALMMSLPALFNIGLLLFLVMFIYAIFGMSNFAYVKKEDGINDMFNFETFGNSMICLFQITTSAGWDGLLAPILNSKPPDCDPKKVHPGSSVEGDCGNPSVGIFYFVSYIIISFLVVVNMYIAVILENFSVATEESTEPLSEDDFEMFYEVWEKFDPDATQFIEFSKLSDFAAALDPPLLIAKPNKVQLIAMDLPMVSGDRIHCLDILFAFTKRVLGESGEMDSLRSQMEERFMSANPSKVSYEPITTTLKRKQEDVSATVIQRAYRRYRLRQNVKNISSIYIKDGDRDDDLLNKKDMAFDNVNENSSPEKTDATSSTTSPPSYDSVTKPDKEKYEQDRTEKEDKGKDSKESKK

The test concerns the target human Nav1.7 (Homo sapiens (Human), UniProt Q15858). In words: FLIPR sodium dye assay (CoroNa Green AM Na+ dye, primary fluorescence assay). It is filed as cell-based. The following applies: recombinant Nav1.7/HEK293 cells. An outline of the steps: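 HEK293 cells stably expressing human Nav1.7 α subunit (no β/γ subunits), loaded with 5 μM CoroNa Green Na+ dye in HEPES-buffered Hanks-type saline, pH 7.3. Na+ influx stimulated by 100 μM veratridine plus 10 μg/mL Leiurus scorpion venom; compounds tested at 20 μM down to 0.001 μM (10 points, 0.2% DMSO).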
For orientation: IC50 means the point on the concentration scale where inhibition reaches its midpoint. For the compound `CN(Cc1cc(-c2cccc(C(N)=O)n2)ccc1Oc1ccc(F)cc1)c1ccccc1` [compound 102, 6-(4-(4-fluorophenoxy)-3-((methyl(phenyl)amino)methyl)phenyl)picolinamide], the 50% inhibitory concentration (IC50) stood at 1.3 ± 0.126 µM. Take `COCc1cc(-c2cccc(C(N)=O)n2)ccc1Oc1ccc(F)cc1` [compound 103, 6-(4-(4-fluorophenoxy)-3-(methoxymethyl)phenyl)picolin-amide]: the IC50 came to 0.312 ± 0.008 µM. Regarding `NC(=O)c1cccc(-c2ccc(Oc3ccc(F)cc3)c(COc3ccc(F)cc3)c2)n1` [compound 104, 6-(4-(4-fluorophenoxy)-3-((4-fluorophenoxy)methyl)phenyl) picolinamide], the IC50 was over 20 µM.

Turning to `N#Cc1ccc(OCc2cc(-c3cccc(C(N)=O)n3)ccc2Oc2ccc(F)cc2)cc1` [compound 105, 6-(3-((4-cyanophenoxy)methyl)-4-(4-fluorophenoxy)phenyl)picolinamide], the half-inhibitory concentration (IC50) is 0.362 ± 0.095 µM.

With `NC(=O)c1cccc(-c2ccc(Oc3ccc(C(F)(F)F)c(CN4CCNC(=O)C4)c3)cc2)n1` [compound 106, 6-(4-(3-((3-oxopiperazin-1-yl)methyl)-4-(trifluoromethyl)-phenoxy)phenyl)picolinamide], the IC50 came to 0.455 ± 0.059 µM. Turning to `OC[C@@H](O)c1cccc(-c2ccc(Oc3ccc(C(F)(F)F)cc3CN3CCCCC3)cc2)n1` [compound 107, (S)-1-(6-(4-(2-(piperidin-1-ylmethyl)-4-(trifluoromethyl)phenoxy)phenyl)pyridin-2-yl)ethane-1,2-diol], the IC50 is 0.174 ± 0.041 µM.

As for `NC(=O)c1cccc(-c2ccc(Oc3ccc(C(F)(F)F)cc3CNC3CCCC3)cc2)n1` [compound 108, 6-(4-(2-((cyclopentylamino)-methyl)-4-(trifluoromethyl)-phenoxy)phenyl)picolinamide], the IC50 was found to be 0.28 ± 0.009 µM. To `CCN(CC)S(=O)(=O)c1cc(C(F)(F)F)ccc1Oc1ccc(-c2cccc(C(N)=O)n2)cc1` [compound 109, 6-(4-(2-(N,N-diethylsulfamoyl)-4-(trifluoromethyl)phenoxy)phenyl)picolinamide] belongs 1.3 ± 0.056 µM; to `NC(=O)c1cccc(-c2ccc(Oc3ccc(C(F)(F)F)cc3C(C(=O)N3CCCC3)N3CCCC3)cc2)n1` (centres unmarked) [compound 111, 6-(4-(2-(2-oxo-1,2-di(pyrrolidin-1-yl)ethyl)-4-(trifluoromethyl)phenoxy)phenyl) picolinamide], 6.59 ± 0.321 µM. As for `NC(=O)c1cccc(-c2ccc(Oc3ccc(C(F)(F)F)cc3C(C(=O)N3CCCC3)N3CCNC(=O)C3)cc2)n1` (centres unmarked) [compound 112, 6-(4-(2-(2-oxo-1-(3-oxopiperazin-1-yl)-2-(pyrrolidin-1-yl)ethyl)-4-(trifluoromethyl)phenoxy)phenyl) picolinamide], the concentration for half-maximal inhibition (IC50) is over 20 µM. With `CCN(CC)S(=O)(=O)c1cc(C(F)(F)F)ccc1Oc1ccc(-c2cccc([C@H](O)CO)n2)cc1` [compound 113, (S)-2-(4-(6-(1,2-dihydroxyethyl)pyridin-2-yl)phenoxy)-N,N-diethyl-5-(trifluoromethyl)benzenesulfonamide], the IC50 is 0.249 ± 0.016 µM.

On to `NC(=O)c1cccc(-c2ccc(Oc3ccc(C(F)(F)F)cc3CNc3nccs3)cc2)n1` [compound 114, 6-(4-(2-((thiazol-2-ylamino)methyl)-4-(trifluoromethyl)phenoxy)phenyl) picolinamide], for which the IC50 was determined as 2.01 ± 0.456 µM. Turning to `OC[C@H](O)c1ccnc(-c2ccc(Oc3ccc(C(F)(F)F)cc3CN3CCCC3)cc2)n1` [compound 115, (R)-1-(2-(4-(2-(pyrrolidin-1-ylmethyl)-4-(trifluoromethyl)phenoxy)phenyl)pyrimidin-4-yl)ethane-1,2-diol], the IC50 is 0.455 ± 0.067 µM. `OC[C@@H](O)c1ccnc(-c2ccc(Oc3ccc(C(F)(F)F)cc3CN3CCCC3)cc2)n1` [compound 116, (S)-1-(2-(4-(2-(pyrrolidin-1-ylmethyl)-4-(trifluoromethyl)phenoxy)phenyl)pyrimidin-4-yl)ethane-1,2-diol]: the IC50 was determined as 0.636 ± 0.065 µM.
